Test results published in the supplement of paper PMC11061612.

Columns and labels:
Assay in all cases: Bliss excess, mean over the matrix (fraction); higher = more synergy
[1] = test system: BL-41 (Burkitt's Lymphoma)
In short: (§1)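 After 24 hours at 37°C and 5% CO2 in 1536-well plates, cells in DMEM/F12 or RPMI plus 10% FBS received two-drug dose matrices for 72 hours. Viability came from CellTiter-Glo 2.0 luminescence and was scaled as inhibition, anchored at 0 by vehicle wells and at 1 by blank wells. Combination Emax is taken as the second-highest inhibition in the matrix, and Bliss excess as the observed combination effect less EA + EB − EA·EB, with EA and EB the single-agent effects.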

[2] = test system: CAMA-1 (Breast Carcinoma)
In short: as §1

[3] = test system: COLO-678 (Colorectal Carcinoma)
In short: as §1

[4] = test system: DiFi (Colorectal Carcinoma)
In short: as §1

[5] = test system: EVSA-T (Breast Carcinoma)
In short: as §1

[6] = test system: HDQ-P1 (Breast Carcinoma)
In short: as §1

[7] = test system: KARPAS-45 (T-Lymphoblastic Leukemia)
In short: as §1

[8] = test system: KCL-22 (Chronic Myelogenous Leukemia)
In short: as §1

[9] = test system: L-540 (Hodgkin's Lymphoma)
In short: as §1

MEL-JUSO (Melanoma) = test system: MEL-JUSO (Melanoma)
In short: as §1

[10] = test system: MFM-223 (Breast Carcinoma)
In short: as §1

[11] = test system: MKN28 (Gastric Carcinoma)
In short: as §1

NCI-H2818 (Mesothelioma) = test system: NCI-H2818 (Mesothelioma)
In short: as §1

[12] = test system: NCI-H847 (Small Cell Lung Carcinoma)
In short: as §1

[13] = test system: P12-ICHIKAWA (T-Lymphoblastic Leukemia)
In short: as §1

[14] = test system: SU-DHL-8 (B-Cell Non-Hodgkin's Lymphoma)
In short: as §1

[15] = test system: SW1417 (Colorectal Carcinoma)
In short: as §1

[16] = test system: SW837 (Colorectal Carcinoma)
In short: as §1

[17] = test system: TE-6 (Esophageal Squamous Cell Carcinoma)
In short: as §1

WM-115 (Melanoma) = test system: WM-115 (Melanoma)
In short: as §1

| SMILES | Bliss excess [1] | Bliss excess [2] | Bliss excess [3] | Bliss excess [4] | Bliss excess [5] | Bliss excess [6] | Bliss excess [7] | Bliss excess [8] | Bliss excess [9] | Bliss excess (MEL-JUSO (Melanoma)) | Bliss excess [10] | Bliss excess [11] | Bliss excess (NCI-H2818 (Mesothelioma)) | Bliss excess [12] | Bliss excess [13] | Bliss excess [14] | Bliss excess [15] | Bliss excess [16] | Bliss excess [17] | Bliss excess (WM-115 (Melanoma)) |
| --- | --- | --- | --- | --- | --- | --- | --- | --- | --- | --- | --- | --- | --- | --- | --- | --- | --- | --- | --- | --- |
| CN(CCO)CC[C@H](CSc1ccccc1)Nc1ccc(S(=O)(=O)NC(=O)c2ccc(N3CCC([C@@H](O)c4ccccc4-c4ccc(Cl)cc4)CC3)cc2)cc1S(=O)(=O)C(F)(F)F [AZD4320] + Cc1cc2ncnn2cc1Nc1ncc2c(n1)n(C1CCOCC1)c(=O)n2C [AZD7648] (first compound max 1 µM, 7x7, partner max 10 µM) | 0.0115 | -0.0031 | -0.0684 | -0.0203 | -0.0237 | -0.0085 | 0.042 | 0.0444 | 0.0389 | -0.0065 | -0.0229 | -0.036 | -0.0715 | 0.0478 | -0.002 | -0.0255 | -0.0426 | -0.0273 | -0.0059 | -0.0054 |
| CN(CCO)CC[C@H](CSc1ccccc1)Nc1ccc(S(=O)(=O)NC(=O)c2ccc(N3CCC([C@@H](O)c4ccccc4-c4ccc(Cl)cc4)CC3)cc2)cc1S(=O)(=O)C(F)(F)F [AZD4320] + Cn1cnc2c(F)c(Nc3ccc(Br)cc3Cl)c(C(=O)NOCCO)cc21 [Selumetinib] (first compound max 1 µM, 7x7, partner max 3 µM) | 0.039 | 0.0043 | 0.0536 | 0.0838 | 0.0703 | 0.0877 | -0.0248 | 0.0271 | -0.0184 | -0.0081 | -0.0146 | 0.0272 | -0.0136 | 0.0247 | 0.0748 | -0.102 | 0.056 | -0.0184 | -0.0277 | 0.102 |
| Cc1c2c(nn1C)CSCc1cc(n(C)n1)CSc1cc(c3ccccc3c1)OCCCc1c(C(=O)O)n(C)c3c-2c(Cl)ccc13 [AZD5991] + C1CN(CCC1(C(=O)N[C@@H](CCO)C2=CC=C(C=C2)Cl)N)C3=NC=NC4=C3C=CN4 [Capivasertib] (first compound max 1 µM, 7x7, partner max 3 µM) | 0.0066 | 0.0993 | -0.0078 | 0.0384 | -0.0074 | 0.0072 | 0.0484 | 0.0067 | 0.0152 | -0.0203 | 0.0005 | -0.0198 | 0.0054 | 0.0714 | 0.039 | -0.0225 | -0.0021 | -0.0191 | -0.0177 | 0.0165 |
| Cc1c2c(nn1C)CSCc1cc(n(C)n1)CSc1cc(c3ccccc3c1)OCCCc1c(C(=O)O)n(C)c3c-2c(Cl)ccc13 [AZD5991] + C=CCn1c(=O)c2cnc(Nc3ccc(N4CCN(C)CC4)cc3)nc2n1-c1cccc(C(C)(C)O)n1 [AZD1775] (first compound max 1 µM, partner max 1 µM) | -0.0133 | -0.0092 | -0.0614 | 0.0285 | 0.0165 | -0.0575 | -0.0189 | -0.035 | -0.0127 | -0.0033 | -0.0611 | -0.0227 | 0.112 | -0.0445 | 0.0528 | -0.01 | -0.0548 | 0 | 0.0135 | -0.0328 |
| Cc1c2c(nn1C)CSCc1cc(n(C)n1)CSc1cc(c3ccccc3c1)OCCCc1c(C(=O)O)n(C)c3c-2c(Cl)ccc13 [AZD5991] + CCN(CCO)CCCOc1ccc2c(Nc3cc(CC(=O)Nc4cccc(F)c4)[nH]n3)ncnc2c1 [AZD2811] (first compound max 1 µM, 7x7, partner max 1 µM) | -0.0295 | 0.0743 | -0.0673 | -0.0077 | 0.0959 | -0.0283 | -0.0409 | 0.0736 | 0.0788 | 0.0389 | 0.0103 | 0.0839 | -0.0116 | 0.0011 | -0.0164 | 0.0416 | -0.0139 | -0.0341 | 0.0482 | -0.0726 |
| Cc1c2c(nn1C)CSCc1cc(n(C)n1)CSc1cc(c3ccccc3c1)OCCCc1c(C(=O)O)n(C)c3c-2c(Cl)ccc13 [AZD5991] + CN(C)CCCOc1ccc(-c2ccc3ncc4c(c3c2)n(C2CCOCC2)c(=O)n4C)cn1 [AZD0156] (first compound max 1 µM, 7x7, partner max 1 µM) | 0.0168 | 0.002 | -0.0427 | -0.0112 | -0.0304 | 0.0104 | -0.0403 | 0.0191 | -0.0021 | 0.0023 | -0.0038 | 0.0021 | -0.0052 | -0.0131 | 0.108 | -0.0377 | 0.0308 | 0.0004 | -0.0167 | -0.0136 |
| Cc1c2c(nn1C)CSCc1cc(n(C)n1)CSc1cc(c3ccccc3c1)OCCCc1c(C(=O)O)n(C)c3c-2c(Cl)ccc13 [AZD5991] + C[C@@H]1COCCN1C2=NC(=NC(=C2)C3(CC3)[S@](=N)(=O)C)C4=C5C=CNC5=NC=C4 [AZD6738] (first compound max 1 µM, 7x7, partner max 10 µM) | -0.0045 | 0.0332 | -0.0899 | 0.0302 | -0.0015 | 0.0563 | 0.0077 | -0.0163 | 0.0278 | 0.0406 | 0.0601 | 0.0118 | 0.0148 | 0.0145 | 0.0312 | 0.0814 | -0.0352 | 0.0152 | 0.0298 | 0.0041 |
| Cc1c2c(nn1C)CSCc1cc(n(C)n1)CSc1cc(c3ccccc3c1)OCCCc1c(C(=O)O)n(C)c3c-2c(Cl)ccc13 [AZD5991] + C[C@@H](Nc1cc(F)cc(F)c1)c1cc(C(=O)N(C)C)cc2c(=O)cc(N3CCOCC3)oc12 [AZD8186] (first compound max 1 µM, 7x7, partner max 3 µM) | -0.0096 | 0.0868 | -0.0613 | 0.0406 | 0.0412 | -0.0209 | 0.0206 | -0.0268 | -0.0224 | 0.0086 | -0.047 | -0.0326 | -0.0343 | 0.0632 | -0.0058 | -0.0961 | -0.0342 | -0.0156 | -0.0515 | 0.018 |
| Cc1c2c(nn1C)CSCc1cc(n(C)n1)CSc1cc(c3ccccc3c1)OCCCc1c(C(=O)O)n(C)c3c-2c(Cl)ccc13 [AZD5991] + Cc1cc2ncnn2cc1Nc1ncc2c(n1)n(C1CCOCC1)c(=O)n2C [AZD7648] (first compound max 1 µM, 7x7, partner max 10 µM) | 0.029 | -0.0456 | -0.0416 | -0.0448 | -0.0156 | -0.0352 | -0.0163 | -0.0086 | -0.0036 | -0.0453 | -0.0361 | 0.0046 | -0.0757 | 0.0083 | -0.0167 | -0.0664 | 0.0054 | -0.0454 | -0.0874 | -0.11 |
| Cc1c2c(nn1C)CSCc1cc(n(C)n1)CSc1cc(c3ccccc3c1)OCCCc1c(C(=O)O)n(C)c3c-2c(Cl)ccc13 [AZD5991] + Cn1cnc2c(F)c(Nc3ccc(Br)cc3Cl)c(C(=O)NOCCO)cc21 [Selumetinib] (first compound max 1 µM, 7x7, partner max 3 µM) | -0.0206 | -0.035 | -0.0226 | 0.0064 | 0.0136 | 0.0002 | 0.011 | 0.078 | 0.0007 | 0.0046 | -0.0199 | -0.0063 | -0.0458 | 0.042 | 0.0419 | -0.074 | -0.0015 | 0.0024 | 0.0043 | -0.0114 |
| COc1cccc(OCCCN)c1-c1cc(Nc2cnc(C#N)cn2)n[nH]1 [Prexasertib] + CCc1c2c(nc3ccc(O)cc13)-c1cc3c(c(=O)n1C2)COC(=O)[C@]3(O)CC [SN-38] (first compound max 1 µM, 7x7, partner max 0.3 µM) | -0.0231 | 0.0573 | -0.0355 | -0.0153 | 0.224 | 0.0367 | 0.0731 | 0.0175 | -0.0621 | -0.0378 | 0.05 | -0.0082 | -0.0745 | 0.055 | -0.0253 | -0.0171 | 0.0029 | 0.0546 | 0.128 | -0.0492 |
| CC(=O)Nc1cccc(-n2c(=O)n(C3CC3)c(=O)c3c(Nc4ccc(I)cc4F)n(C)c(=O)c(C)c32)c1 [Trametinib] + Cc1nc(-c2cn3c(n2)-c2ccc(-c4cnn(C(C)(C)C(N)=O)c4)cc2OCC3)n(C(C)C)n1 [Taselisib] (first compound max 1 µM, 7x7, partner max 10 µM) | 0.0485 | -0.0565 | -0.0114 | 0.107 | -0.0335 | 0.221 | 0.112 | 0.292 | 0.0227 | 0.12 | -0.0174 | 0.0966 | -0.0103 | 0.0603 | 0.267 | -0.0358 | -0.0045 | 0.05 | 0.0911 | 0.048 |
| CC1(C)CCC(CN2CCN(c3ccc(C(=O)NS(=O)(=O)c4ccc(NCC5CCOCC5)c([N+](=O)[O-])c4)c(Oc4cnc5[nH]ccc5c4)c3)CC2)=C(c2ccc(Cl)cc2)C1 [Venetoclax] + C1CN(CCC1(C(=O)N[C@@H](CCO)C2=CC=C(C=C2)Cl)N)C3=NC=NC4=C3C=CN4 [Capivasertib] (first compound max 1 µM, 7x7, partner max 3 µM) | -0.0058 | -0.056 | -0.118 | -0.022 | -0.0371 | -0.0234 | 0.0512 | 0.0015 | -0.0178 | -0.0436 | -0.0258 | -0.0455 | -0.0628 | 0.0062 | 0.0039 | -0.0918 | -0.0744 | -0.0256 | 0.0217 | -0.0785 |
| CC1(C)CCC(CN2CCN(c3ccc(C(=O)NS(=O)(=O)c4ccc(NCC5CCOCC5)c([N+](=O)[O-])c4)c(Oc4cnc5[nH]ccc5c4)c3)CC2)=C(c2ccc(Cl)cc2)C1 [Venetoclax] + C=CCn1c(=O)c2cnc(Nc3ccc(N4CCN(C)CC4)cc3)nc2n1-c1cccc(C(C)(C)O)n1 [AZD1775] (first compound max 1 µM, partner max 1 µM) | -0.0319 | 0.0033 | -0.0371 | -0.0222 | 0.0075 | -0.014 | -0.0002 | -0.0114 | 0.069 | -0.0447 | -0.0987 | -0.0029 | -0.0649 | -0.0022 | 0.0117 | 0.0401 | -0.0132 | 0.0009 | -0.0859 | -0.0465 |
